# Laboratory results from publication PMC4965473 (Frontiers in Physiology, 2016).
# “Also recorded” adds a separate entry of the source. Structures can show the parent of a compound that is named as a salt.
# How the values were obtained:
# [1] = tested on: G34A mutant of M2TMD21−49; design: species or system influenza A; settings: pH 5.5
# M2TMD21−49 [2] = biological target: T1, M2TMD21−49 (Influenza A virus, UniProt P0DOF5, L46C); format: binding; settings: pH 5.5
# wt M2TMD21−49 [3] = tested on: wt M2TMD21−49; design: species or system influenza A; settings: pH 5.5
# M2TMD21−49 [4] = biological target: T1, M2TMD21−49
# wt M2TMD21−49 [5] = tested on: wt M2TMD21−49; design: species or system influenza A; settings: pH 5.5; remark: listed apart in the source
compound,measurement,setting,value
"NC12CC3CC(CC(C3)C1)C2 [amantadine, amantadine hydrochloride]",effect of amantadine on C-terminal conformation / inter-spin distances of G34A mutant,[1],marginal if any effect on M2TMD C-terminal conformation; also recorded: Inter-spin distances do not change upon the addition of amantadine
same,reduction of k4d in the presence of amantadine,M2TMD21−49 [2],10 -fold
same,narrowing of Gaussian widths (σ) in the presence of amantadine,wt M2TMD21−49 [3],ca. 2 Å
same,"r1, Gaussian mean (proximal distance)",wt M2TMD21−49 [3],20.8 Å
same,"r2, Gaussian mean (lateral distance)",wt M2TMD21−49 [3],29 Å
same,shortening of inter-spin distances upon binding of amantadine,wt M2TMD21−49 [3],5–8 Å
same,oligomeric species seen in EM micrographs,M2TMD21−49 [4],"monomers, dimers, and tetramers"
same,maximum increase in DEER modulation depth upon binding of amantadine,wt M2TMD21−49 [5],23–30%
